Series [1] concerns the target T1, full-length beta-Catenin (Uniprot ID P35222) (Homo sapiens, UniProt P35222).
T1 construct: 10 nM full-length beta-Catenin (Uniprot ID P35222)
T1 sequence (P35222 1-781): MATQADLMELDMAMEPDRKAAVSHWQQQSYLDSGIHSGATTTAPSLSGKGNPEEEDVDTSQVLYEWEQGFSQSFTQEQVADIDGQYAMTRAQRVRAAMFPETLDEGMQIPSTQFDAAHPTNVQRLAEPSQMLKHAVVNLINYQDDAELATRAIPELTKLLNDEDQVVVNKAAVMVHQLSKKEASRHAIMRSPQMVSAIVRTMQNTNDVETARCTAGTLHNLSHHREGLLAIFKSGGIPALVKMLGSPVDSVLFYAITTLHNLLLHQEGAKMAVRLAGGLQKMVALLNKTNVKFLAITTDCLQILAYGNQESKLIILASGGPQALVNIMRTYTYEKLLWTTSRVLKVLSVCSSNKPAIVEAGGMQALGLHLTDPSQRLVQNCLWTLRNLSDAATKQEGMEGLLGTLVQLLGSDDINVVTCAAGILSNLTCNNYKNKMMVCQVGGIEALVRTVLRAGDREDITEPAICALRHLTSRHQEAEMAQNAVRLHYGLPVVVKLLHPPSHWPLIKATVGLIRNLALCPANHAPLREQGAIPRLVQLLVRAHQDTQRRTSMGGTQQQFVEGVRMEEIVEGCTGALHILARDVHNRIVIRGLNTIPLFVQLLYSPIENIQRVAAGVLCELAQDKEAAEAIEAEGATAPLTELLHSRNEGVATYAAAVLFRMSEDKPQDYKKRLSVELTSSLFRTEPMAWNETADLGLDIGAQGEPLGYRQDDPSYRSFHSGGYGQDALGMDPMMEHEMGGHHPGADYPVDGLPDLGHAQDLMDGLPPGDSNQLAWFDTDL
As to the kind of experiment: Fluorescence polarization IC50 (beta-catenin / 5FAM-TCF4 10-53 competition). It is filed as binding. Background: Polarisation of emitted light reports the rotation of a fluorescent probe.

Series [2] in a line: CHI Log D procedure. It is filed as physicochemical. The note with it: for chromatographic logD: pH 7.4, CHI Log D.
Where [3] appears, read: Table E2-1, read-out: beta-Catenin FP IC50.

SMILES strings stand for the structures. pIC50: −log10 of the molar value. Read-outs that look alike come from different tables or passages of the source.

The values below come from US20240116985A1, “STAPLED PEPTIDES AND METHODS THEREOF” (priority 2020, published 2024).

As for `CC(=O)N1CCC[C@]12CC=CCCCC1(CCCC=CCCCCCC[C@@](C)(C(=O)N[C@@H](Cc3ccccc3)C(=O)N[C@@H](Cc3c[nH]c4ccccc34)C(=O)N[C@@H](C)C(N)=O)NC(=O)[C@H](C(C)C)NC(=O)[C@H](Cc3ccccc3)NC(=O)[C@H](C)NC(=O)[C@H](C)NC(=O)[C@H](CCC(=O)O)NC(=O)[C@H](CC(=O)O)NC1=O)NC(=O)[C@H](C)NC(=O)[C@H](CC(=O)O)NC2=O` (stereo partly drawn) [I-135, Ac-PL3-Asp-Ala-B5-Asp-Glu-Ala-Ala-Phe-Val-S8-Phe-Trp-Ala-NH2], in series [1] (setting [3]), the pIC50 is 5.73. The chromatographic logD (usually a lipophilicity value derived from retention on a column) in series [2] came to 2.18.

On to `CC(=O)N1CCC[C@]12CC=CCCCC1(CCCC=CCCCCCC[C@@](C)(C(=O)N[C@@H](Cc3ccccc3)C(=O)N[C@@H](Cc3ccc4ccccc4n3)C(=O)N[C@@H](CCC(N)=O)C(N)=O)NC(=O)[C@H](C(C)C)NC(=O)[C@H](Cc3ccccc3)NC(=O)[C@H](C)NC(=O)[C@H](C)NC(=O)[C@H](CCC(=O)O)NC(=O)[C@H](CC(=O)O)NC1=O)NC(=O)[C@H](C)NC(=O)[C@H](CC(=O)O)NC2=O` (stereo partly drawn) [I-143, Ac-PL3-Asp-Ala-B5-Asp-Glu-Ala-Ala-Phe-Val-S8-Phe-Qui-Gln-NH2], for which the pIC50 in series [1] (setting [3]) is 5.64. Moreover, the chromatographic logD in series [2] came out at 2.07.

As for `CC[C@H](C)[C@H](NC(=O)[C@H](CC(=O)O)NC(=O)C(C)(C)NC(C)=O)C(=O)N[C@]1(C)CCN(C)C(=O)OCC=CCCCCC[C@@](C)(C(=O)N[C@@H](Cc2ccccc2)C(=O)N[C@@H](Cc2c[nH]c3ccccc23)C(N)=O)NC(=O)[C@H](CCC(N)=O)NC(=O)[C@H](Cc2ccccc2)NC(=O)[C@H](C)NC(=O)[C@H](C)NC(=O)[C@H](CCC(=O)O)NC(=O)[C@H](CC(=O)O)NC1=O` [I-147, Ac-Aib-Asp-Ile-RdN-Asp-Glu-Ala-Ala-Phe-Gln-S7-Phe-Trp-NH2], the pIC50 in series [1] (setting [3]) was 5.79. Also, the chromatographic logD in series [2] is 1.4.

For the compound `CC[C@H](C)[C@H](NC(=O)[C@H](CC(=O)O)NC(=O)[C@H](C)NC(C)=O)C(=O)N[C@]1(C)CCN(C)C(=O)OCC=CCCCCC[C@@](C)(C(=O)N[C@@H](Cc2ccccc2)C(=O)N[C@@H](Cc2c[nH]c3ccccc23)C(=O)N[C@@H](Cc2c[nH]cn2)C(N)=O)NC(=O)[C@H](C)NC(=O)[C@H](Cc2ccccc2)NC(=O)[C@H](C)NC(=O)[C@H](C)NC(=O)[C@H](CCC(=O)O)NC(=O)[C@H](CC(=O)O)NC1=O` [I-152, Ac-Ala-Asp-Ile-RdN-Asp-Glu-Ala-Ala-Phe-Ala-S7-Phe-Trp-His-NH2], the pIC50 in series [1] (setting [3]) is 5.30. The same compound came in with a chromatographic logD in series [2] of 1.34.

For `CC(=O)N1CCC[C@]12CC=CCCCC1(CCCC=CCCCCCC[C@@](C)(C(=O)N[C@@H](Cc3ccccc3)C(=O)N[C@@H](Cc3c[nH]c4c(F)cccc34)C(=O)N[C@@H](CCC(N)=O)C(N)=O)NC(=O)[C@H](C(C)C)NC(=O)[C@H](Cc3ccccc3)NC(=O)[C@H](C)NC(=O)[C@H](C)NC(=O)[C@H](CCC(=O)O)NC(=O)[C@H](CC(=O)O)NC1=O)NC(=O)[C@H](C)NC(=O)[C@H](CC(=O)O)NC2=O` (stereo partly drawn) [I-166, Ac-PL3-Asp-Ala-B5-Asp-Glu-Ala-Ala-Phe-Val-S8-Phe-7FW-Gln-NH2], the pIC50 in series [1] (setting [3]) is 5.66. The chromatographic logD in series [2] stood at 2.06.

As to `CC(=O)N1CCC[C@]12CC=CCCCC1(CCCC=CCCCCCC[C@@](C)(C(=O)N[C@@H](Cc3ccccc3)C(=O)N[C@@H](Cc3c[nH]c4ccccc34)C(=O)N[C@@H](CCC(N)=O)C(N)=O)NC(=O)[C@H](C(C)C)NC(=O)[C@H](Cc3ccccc3)NC(=O)[C@H](C)NC(=O)[C@H](C)NC(=O)[C@@H](CCC(=O)O)NC(=O)[C@H](CC(=O)O)NC1=O)NC(=O)[C@H](C)NC(=O)[C@H](CC(=O)O)NC2=O` (stereo partly drawn) [I-182, Ac-PL3-Asp-Ala-B5-Asp-DGlu-Ala-Ala-Phe-Val-S8-Phe-Trp-Gln-NH2], the pIC50 in series [1] (setting [3]) was 5.55. The chromatographic logD in series [2] was 2.07.

Consider `CC(=O)N1CCC[C@]12CC=CCCCC1(CCCC=CCCCCCC[C@@](C)(C(=O)N[C@@H](Cc3ccccc3)C(=O)N[C@@H](Cc3ccc4ccccc4c3)C(=O)N[C@@H](CCC(N)=O)C(N)=O)NC(=O)[C@H](C(C)C)NC(=O)[C@H](Cc3ccc(F)c(F)c3)NC(=O)[C@H](C)NC(=O)[C@H](C)NC(=O)[C@H](CCC(=O)O)NC(=O)[C@H](CC(=O)O)NC1=O)NC(=O)[C@H](C)NC(=O)[C@H](CC(=O)O)NC2=O` (stereo partly drawn) [I-184, Ac-PL3-Asp-Ala-B5-Asp-Glu-Ala-Ala-34FF-Val-S8-Phe-2NapA-Gln-NH2], for which the pIC50 in series [1] (setting [3]) is 5.51. For the same compound, the chromatographic logD in series [2] was 2.27.

For `CC(=O)N1CCC[C@]12CC=CCCCC1(CCCC=CCCCCCC[C@@](C)(C(=O)N[C@@H](Cc3ccccc3)C(=O)N[C@@H](Cc3c[nH]c4ccccc34)C(=O)N[C@@H](C)C(N)=O)NC(=O)[C@H](C)NC(=O)[C@H](Cc3ccccc3)NC(=O)[C@H](C)NC(=O)[C@H](C)NC(=O)[C@H](CCC(=O)O)NC(=O)[C@H](CC(=O)O)NC1=O)NC(=O)[C@H](C)NC(=O)[C@H](CC(=O)O)NC2=O` (stereo partly drawn) [I-187, Ac-PL3-Asp-Ala-B5-Asp-Glu-Ala-Ala-Phe-Ala-S8-Phe-Trp-Ala-NH2], the pIC50 in series [1] (setting [3]) is 5.48; in series [1] (fluorescence polarization, beta-catenin, read-out: FP EC50) it was 5.48. Moreover, the “CHI Log D” value in series [2] (pH 7.4) is 2.083.

Take `CC(=O)N1CCC[C@]12CC=CCCCC1(CCCC=CCCCCCC[C@@](C)(C(=O)N[C@@H](Cc3ccccc3)C(=O)N[C@@H](Cc3c[nH]c4ccccc34)C(=O)N[C@@H](CCC(N)=O)C(N)=O)NC(=O)[C@H](C(C)C)NC(=O)[C@H](Cc3ccccc3)NC(=O)[C@H](C)NC(=O)[C@H](C)NC(=O)[C@H](CCC(=O)O)NC(=O)[C@H](CC(N)=O)NC1=O)NC(=O)[C@H](C)NC(=O)[C@H](CC(=O)O)NC2=O` (stereo partly drawn) [I-198, Ac-PL3-Asp-Ala-B5-Asn-Glu-Ala-Ala-Phe-Val-S8-Phe-Trp-Gln-NH2]: in series [1] (setting [3]), the pIC50 was 5.30. The same compound gave a chromatographic logD in series [2] of 2.37.

Take `CC(=O)N1CCC[C@]12CC=CCCCC1(CCCC=CCCCCCC[C@@](C)(C(=O)N[C@@H](Cc3cccc(F)c3)C(=O)N[C@@H](Cc3c[nH]c4ccccc34)C(=O)N[C@@H](CCC(N)=O)C(N)=O)NC(=O)[C@H](C(C)C)NC(=O)[C@H](Cc3ccccc3)NC(=O)[C@H](C)NC(=O)[C@H](C)NC(=O)[C@H](CC(=O)O)NC(=O)[C@H](CC(=O)O)NC1=O)NC(=O)[C@H](C)NC(=O)[C@H](CC(=O)O)NC2=O` (stereo partly drawn) [I-260, Ac-PL3-Asp-Ala-B5-Asp-Asp-Ala-Ala-Phe-Val-S8-3FF-Trp-Gln-NH2]: the pIC50 in series [1] (setting [3]) was 5.30. The compound also had a chromatographic logD in series [2] of 2.06.

In the case of `CC(=O)N1CCC[C@]12CC=CCCCC1(CCCC=CCCCCCC[C@@](C)(C(=O)N[C@@H](Cc3ccc(F)cc3)C(=O)N[C@@H](Cc3c[nH]c4ccccc34)C(=O)N[C@@H](CCC(N)=O)C(N)=O)NC(=O)[C@H](C(C)C)NC(=O)[C@H](Cc3ccccc3)NC(=O)[C@H](C)NC(=O)[C@H](C)NC(=O)[C@H](CC(=O)O)NC(=O)[C@H](CC(=O)O)NC1=O)NC(=O)[C@H](C)NC(=O)[C@H](CC(=O)O)NC2=O` (stereo partly drawn) [I-261, Ac-PL3-Asp-Ala-B5-Asp-Asp-Ala-Ala-Phe-Val-S8-4FF-Trp-Gln-NH2], the pIC50 in series [1] (setting [3]) is 5.30. Moreover, the chromatographic logD in series [2] was 2.01.

On to `CC(=O)N1CCC[C@]12CC=CCCCC1(CCCC=CCCCCCC[C@@](C)(C(=O)N[C@@H](Cc3ccccc3)C(=O)N[C@@H](Cc3c[nH]c4ccccc34)C(=O)N[C@@H](CCC(N)=O)C(N)=O)NC(=O)[C@H](C(C)C)NC(=O)[C@H](Cc3ccc(F)cc3)NC(=O)[C@H](C)NC(=O)[C@H](C)NC(=O)[C@H](CC(=O)O)NC(=O)[C@H](CC(=O)O)NC1=O)NC(=O)[C@H](C)NC(=O)[C@H](CC(=O)O)NC2=O` (stereo partly drawn) [I-266, Ac-PL3-Asp-Ala-B5-Asp-Asp-Ala-Ala-4FF-Val-S8-Phe-Trp-Gln-NH2], for which the pIC50 in series [1] (setting [3]) is 5.30. The compound also showed a chromatographic logD in series [2] of 2.02.

`CC(=O)N1CCC[C@]12CC=CCCCC1(CCCC=CCCCCCC[C@@](C)(C(=O)N[C@@H](Cc3ccccc3)C(=O)N[C@@H](Cc3c[nH]c4ccccc34)C(=O)N[C@@H](CCC(N)=O)C(N)=O)NC(=O)[C@H](C(C)C)NC(=O)[C@H](Cc3ccccc3)NC(=O)[C@H](C)NC(=O)[C@H](C)NC(=O)[C@H](Cc3ccccn3)NC(=O)[C@H](CC(=O)O)NC1=O)NC(=O)[C@H](C)NC(=O)[C@H](CC(=O)O)NC2=O` (stereo partly drawn) [I-270, Ac-PL3-Asp-Ala-B5-Asp-2PyrA-Ala-Ala-Phe-Val-S8-Phe-Trp-Gln-NH2]: the pIC50 in series [1] (setting [3]) was 5.30. The chromatographic logD in series [2] was determined as 2.5.

As for `CC(=O)N1CCC[C@]12CC=CCCCC1(CCCC=CCCCCCC[C@@](C)(C(=O)N[C@@H](Cc3ccccc3)C(=O)N[C@@H](Cc3c[nH]c4ccccc34)C(=O)N[C@@H](C)C(N)=O)NC(=O)[C@H](C)NC(=O)[C@H](Cc3ccccc3)NC(=O)[C@H](C)NC(=O)[C@H](C)NC(=O)[C@H](CC(=O)O)NC(=O)[C@H](CC(=O)O)NC1=O)NC(=O)[C@H](C)NC(=O)[C@H](CC(=O)O)NC2=O` (stereo partly drawn) [I-286, Ac-PL3-Asp-Ala-B5-Asp-Asp-Ala-Ala-Phe-Ala-S8-Phe-Trp-Ala-NH2], the pIC50 in series [1] (setting [3]) is 5.35. The same compound displayed a chromatographic logD in series [2] of 2.01.
